Experiments:
HCV NS3 helicase (NS3h) [1] = target: T1, HCV NS3 helicase (NS3h) (Hepacivirus hominis (Hepatitis C virus), UniProt P29846); assay: HCV helicase unwinding assay, DNA substrate; format: biochemical
HCV NS3 helicase (NS3h) [2] = target: T1, HCV NS3 helicase (NS3h); assay: HCV helicase unwinding assay, RNA substrate; format: biochemical
JEV helicase = JEV helicase (Japanese encephalitis virus, UniProt P27395); assay: JEV helicase inhibition; format: biochemical
DENV helicase = DENV helicase (Dengue virus type 2, UniProt P29990); assay: DENV helicase inhibition; format: biochemical
[3] = tested on: EcoRI-digested pT7-7 plasmid; assay: Gel shift assay with plasmid; format: binding

T1 sequence (P29846 1192-1657): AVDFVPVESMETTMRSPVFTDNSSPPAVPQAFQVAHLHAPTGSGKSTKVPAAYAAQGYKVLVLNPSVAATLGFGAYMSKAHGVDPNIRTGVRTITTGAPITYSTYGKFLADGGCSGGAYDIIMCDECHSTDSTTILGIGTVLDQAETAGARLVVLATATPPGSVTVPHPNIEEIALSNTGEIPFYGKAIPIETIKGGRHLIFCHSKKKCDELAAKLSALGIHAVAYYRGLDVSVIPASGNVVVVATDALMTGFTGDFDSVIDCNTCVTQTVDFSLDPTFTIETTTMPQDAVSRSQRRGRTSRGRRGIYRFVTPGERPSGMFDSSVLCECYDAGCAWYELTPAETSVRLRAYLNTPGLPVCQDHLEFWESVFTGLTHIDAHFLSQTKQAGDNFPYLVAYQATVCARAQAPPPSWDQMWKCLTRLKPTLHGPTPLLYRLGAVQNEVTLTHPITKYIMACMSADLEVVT
JEV helicase, sequence (P27395 1505-2123): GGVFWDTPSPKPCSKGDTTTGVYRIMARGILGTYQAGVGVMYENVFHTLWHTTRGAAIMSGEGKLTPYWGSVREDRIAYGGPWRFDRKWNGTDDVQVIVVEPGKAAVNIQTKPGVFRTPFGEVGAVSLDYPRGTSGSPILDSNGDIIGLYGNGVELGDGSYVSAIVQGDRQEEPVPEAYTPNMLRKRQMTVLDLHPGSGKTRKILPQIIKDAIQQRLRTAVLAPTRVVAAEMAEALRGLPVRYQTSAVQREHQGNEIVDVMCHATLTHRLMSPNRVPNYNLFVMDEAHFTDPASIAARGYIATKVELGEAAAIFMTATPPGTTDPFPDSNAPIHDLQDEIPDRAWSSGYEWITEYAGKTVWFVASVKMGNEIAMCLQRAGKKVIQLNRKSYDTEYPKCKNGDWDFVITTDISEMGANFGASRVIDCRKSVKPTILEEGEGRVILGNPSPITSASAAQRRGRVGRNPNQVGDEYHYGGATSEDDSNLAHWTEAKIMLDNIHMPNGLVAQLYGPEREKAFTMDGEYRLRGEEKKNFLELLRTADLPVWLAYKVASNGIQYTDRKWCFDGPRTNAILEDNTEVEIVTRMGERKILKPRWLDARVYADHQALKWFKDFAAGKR
DENV helicase, sequence (P29990 1476-2093): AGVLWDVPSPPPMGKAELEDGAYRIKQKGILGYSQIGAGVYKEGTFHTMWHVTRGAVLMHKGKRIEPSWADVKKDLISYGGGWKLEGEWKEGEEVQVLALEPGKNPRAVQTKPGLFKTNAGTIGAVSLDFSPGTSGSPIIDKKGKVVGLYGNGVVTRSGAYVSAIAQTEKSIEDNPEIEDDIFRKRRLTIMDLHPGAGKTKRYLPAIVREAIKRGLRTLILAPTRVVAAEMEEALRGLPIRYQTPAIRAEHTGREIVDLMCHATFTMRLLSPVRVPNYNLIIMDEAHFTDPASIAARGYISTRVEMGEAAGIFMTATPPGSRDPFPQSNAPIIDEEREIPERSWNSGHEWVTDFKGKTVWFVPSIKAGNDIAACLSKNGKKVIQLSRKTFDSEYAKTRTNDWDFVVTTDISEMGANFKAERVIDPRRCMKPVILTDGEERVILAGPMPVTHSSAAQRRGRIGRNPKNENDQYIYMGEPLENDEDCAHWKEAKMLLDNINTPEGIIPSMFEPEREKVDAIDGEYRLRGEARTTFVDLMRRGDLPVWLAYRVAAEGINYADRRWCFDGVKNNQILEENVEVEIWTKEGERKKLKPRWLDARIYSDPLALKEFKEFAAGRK

SMILES	IC50 (HCV NS3 helicase (NS3h) [1])	IC50 (HCV NS3 helicase (NS3h) [2])	JEV helicase inhibition, in words (JEV helicase)	DENV helicase inhibition, in words (DENV helicase)	Effect on gel mobility of plasmid [3]	HCV helicase inhibition, in words (HCV NS3 helicase (NS3h) [1]; DNA substrate)	HCV helicase inhibition, in words (HCV NS3 helicase (NS3h) [2]; RNA substrate)
COC(=O)c1cccc2oc(-c3ccccc3O)nc12 [Compound 1]	> 1800 µM	> 1800 µM	–	–	–	–	–
O=C(O)c1cccc2oc(-c3ccccc3O)nc12 [Compound 2]	> 1800 µM	> 1800 µM	–	–	–	–	–
CNC(=O)c1cccc2oc(-c3ccccc3O)nc12 [Compound 3]	> 1800 µM	> 1800 µM	–	–	–	–	–
COC(=O)c1cccc2oc(-c3ccc4c(OCc5ccccc5)cccc4c3O)nc12 [Compound 5]	–	–	no inhibition	no inhibition	do not affect	–	–
COC(=O)c1cccc2oc(-c3ccc4ccc(OCc5ccccc5)cc4c3O)nc12 [Compound 6]	–	–	no inhibition	no inhibition	do not affect	–	–
COC(=O)c1cccc2oc(-c3cccc4oc(-c5ccccc5O)nc34)nc12 [UK-1]	–	> 1200 µM	–	–	–	weak inhibition	no inhibition

Reference: article PMC6136245 (Bioorganic & medicinal chemistry letters, 2013)
